Laboratory results taken from patent US8735375B2, “Therapeutic compositions” (Leo Laboratories Limited, priority 2005, dated 2014).

Key:
Type in all cases: physicochemical
[1] = Stability of I3A isoforms in the assay solvent systems over 72 h
Experimental: The stability of […] isoforms 'a', 'b' and 'c' in the three sample systems over 72 h (equivalent to the maximum possible length of time the samples might be held in the autosampler during a long HPLC analytical run) was confirmed as follows. Standards of the three isoforms of […] The standards were then each divided into three equal volumes and placed at 2-8° C., room temperature and 40° C. for 72 h and were then again analysed by HPLC.

[2] = Kinetic solubility of I3A in 20% v/v ethanol/citrate buffer (pH 3.0); details: aqueous with cosolvent or surfactant or cyclodextrin, kinetic from dmso stock, 25° C.
[3] = Preliminary stability of I3A in fractionated coconut oil
Experimental: Approximately 10 mg of […] was accurately weighed into a 28 ml glass vial and added to approximately 200 mg of benzyl alcohol (exact weight noted), which had previously been filtered through a 0.22 μm MILLEX-GV filter. This mixture was periodically vortexed for approximately 2 h until the […] had dissolved in the benzyl alcohol. […] Aliquots of each formulation (placebo or active) were dispensed into 2 ml screw cap amber glass vials (borosilicate glass), sealed and stored at two storage conditions namely 2-8° C. and 25±2° C. […]

[4] = Stability of I3A at various pH's (buffers); details: room temperature
Experimental: The stability of I3A was investigated at pH 4.5 in two buffers i.e. monopotassium phosphate/disodium phosphate and acetic acid/ammonium acetate for 24 h at room temperature.

[5] = Stability study of I3A in solvents/excipients at room temperature (HPLC ratio of isoform 'b' to 'a' and 'c')
Experimental: A stability study of I3A in the following solvent/excipients/excipient combinations was performed over 14 days (except where otherwise stated) at room temperature:
A 0.5 mg/ml stock solution of I3A in acetonitrile was prepared. Aliquots of 1.0 ml were transferred to individual glass sample vials by a burette; the solutions were dried by air jet and then 1.0 g of the respective solvent/excipient/excipient combination was added to the vials. On Day 0, Day 5 and Day 14, aliquots of the stability samples were removed for HPLC analysis using the chromatographic conditions described under “Stability in DMSO”, below. Stability was expressed as the ratio of peak ‘b’ to peak ‘a’ (and peak ‘c’ if present), with a high ratio indicating stability in a particular excipient.
The chromatographic conditions employed for the excipients stability study were as follows:
It is assumed that for an excipient in which I3A is not stable, other like excipients will not be suitable.

Stability of I3A in DMSO = details: 10 days
Experimental: I3A was investigated for stability in DMSO at room temperature and at 37° C. over a 10 day time period. A control sample of I3A in acetonitrile was kept under the same conditions as the test sample. The samples were analysed by HPLC at the start of the experiment (Day 0), after 48 hours (Day 2) and again after 10 days.
The chromatographic conditions employed were as follows: […]

[6] = Acetonitrile/Citrate buffer (pH 3), 72 h 2-8° C.
[7] = Acetonitrile/Citrate buffer (pH 3), 72 h 40° C.
[8] = Acetonitrile/Citrate buffer (pH 3), 72 h RTP
[9] = Acetonitrile/Citrate buffer (pH 3), Time 0 h
[10] = Acetonitrile/Sodium acetate buffer (pH 4.5), 72 h 2-8° C.
[11] = Acetonitrile/Sodium acetate buffer (pH 4.5), 72 h 40° C.
[12] = Acetonitrile/Sodium acetate buffer (pH 4.5), 72 h RTP
[13] = Acetonitrile/Sodium acetate buffer (pH 4.5), Time 0 h
[14] = I3A in Mineral oil, room temperature, 14 days

Structure (SMILES): C/C=C(/C)C(=O)O[C@H]1C(C)=C[C@]23C(=O)[C@H](C=C(CO)[C@@H](O)[C@]12O)[C@H]1[C@@H](C[C@H]3C)C1(C)C [Formulation I3A, ingenol-3-angelate]
- % ‘a’ ([1]; Acetonitrile, 72 h 2-8° C.): 3.94%
- % ‘b’ ([1]; Acetonitrile, 72 h 2-8° C.): 95.45%
- % ‘c’ ([1]; Acetonitrile, 72 h 2-8° C.): 0%
- % ‘a’ ([1]; Acetonitrile, 72 h 40° C.): 15.52%
- % ‘b’ ([1]; Acetonitrile, 72 h 40° C.): 83.35%
- % ‘c’ ([1]; Acetonitrile, 72 h 40° C.): 0%
- % ‘a’ ([1]; Acetonitrile, 72 h RTP): 5.83%
- % ‘b’ ([1]; Acetonitrile, 72 h RTP): 93.51%
- % ‘c’ ([1]; Acetonitrile, 72 h RTP): 0%
- % ‘a’ ([1]; Acetonitrile, Time 0 h): 0.39%
- % ‘b’ ([1]; Acetonitrile, Time 0 h): 99.27%
- % ‘c’ ([1]; Acetonitrile, Time 0 h): 0%
- % ‘a’ [1, 6]: 0.18%
- % ‘b’ [1, 6]: 99.49%
- % ‘c’ [1, 6]: 0%
- % ‘a’ [1, 7]: 0.34%
- % ‘b’ [1, 7]: 99.63%
- % ‘c’ [1, 7]: 0%
- % ‘a’ [1, 8]: 0.13%
- % ‘b’ [1, 8]: 99.76%
- % ‘c’ [1, 8]: 0%
- % ‘a’ [1, 9]: 0.13%
- % ‘b’ [1, 9]: 99.64%
- % ‘c’ [1, 9]: 0%
- % ‘a’ [1, 10]: 0.63%
- % ‘b’ [1, 10]: 99.02%
- % ‘c’ [1, 10]: 0%
- % ‘a’ [1, 11]: 6.35%
- % ‘b’ [1, 11]: 93.13%
- % ‘c’ [1, 11]: 0%
- % ‘a’ [1, 12]: 1.16%
- % ‘b’ [1, 12]: 98.41%
- % ‘c’ [1, 12]: 0%
- % ‘a’ [1, 13]: 0.34%
- % ‘b’ [1, 13]: 98.88%
- % ‘c’ [1, 13]: 0.01%
- solubility kinetic [2]: 509.7 ± 3 µg/mL
- % I3A ‘a’ (isoform ‘a’ as a percentage of isoform ‘a’ and I3A ‘b’) ([3]; 0.1% w/w I3A in fractionated coconut oil/2% benzyl alcohol, Time 0): 1.90%
- % I3A ‘a’ ([3]; Fresh sample I3A in Acetonitrile at time 43 days): 2.14%
- % I3A ‘a’ (isoform ‘a’ as a percentage of isoform ‘a’ and I3A ‘b’) ([3]; Fresh sample I3A in Acetonitrile at time zero): 2.50%
- % I3A ‘a’ ([3]; I3A in fractionated coconut oil formulation, Time 5 days (2-8° C.)): 1.86%
- % I3A ‘a’ ([3]; I3A in fractionated coconut oil formulation, Time 5 days (25° C.)): 1.97%
- % I3A ‘a’ ([3]; I3A in fractionated coconut oil formulation, Time 20 days (2-8° C.)): 1.94%
- % I3A ‘a’ ([3]; I3A in fractionated coconut oil formulation, Time 20 days (25° C.)): 1.93%
- % I3A ‘a’ ([3]; I3A in fractionated coconut oil formulation, Time 28 days (2-8° C.)): 1.93%
- % I3A ‘a’ ([3]; I3A in fractionated coconut oil formulation, Time 28 days (25° C.)): 1.94%
- % I3A ‘a’ ([3]; I3A in fractionated coconut oil formulation, Time 43 days (2-8° C.)): 1.95%
- % I3A ‘a’ ([3]; I3A in fractionated coconut oil formulation, Time 43 days (25° C.)): 1.91%
- change in percentage of isoform ‘a’ during storage ([3]; I3A in fractionated coconut oil, 2-8 and 25° C., 43 days): no increase in the percentage of isoform ‘a’
- stability (predominance of isoform 'b') ([4]; pH 4.5, monopotassium phosphate/disodium phosphate and acetic acid/ammonium acetate buffers, 24 h): stable
- stability ([4]; pH 5.5, 6.5 and 7.0, 14 days): decrease with an increase in pH
- Stable? ([5]; I3A in 2-Hydroxypropyl-β-cyclodextrin (Cavasol)/PO4 pH 4.5, room temperature, 14 days): √
- Stable? ([5]; I3A in Acetone, room temperature, 14 days): stable and √
- Stable? ([5]; I3A in Acetonitrile, room temperature, 14 days): stable and √
- Stable? ([5]; I3A in Ammonium buffer pH 4.5, room temperature): stable and √
- Comments ([5]; I3A in Captisol/H2O, room temperature, 7 days study (comment continues: present)): Isoforms ‘a’ and ‘c’
- Comments ([5]; I3A in Cavasol/H2O, room temperature, 14 days): Large peak for isoform ‘c’
- Comments ([5]; I3A in Cavasol/PO4 pH 4.5, room temperature, 14 days): Some precipitation of I3A
- Stable? ([5]; I3A in DMSO, room temperature, 10 days study): stable and √
- Comments ([5]; I3A in Methanol, room temperature, 14 days): Isoform ‘a’ forms
- Comments ([5]; I3A in Methanol/water (70/30), room temperature, 14 days): Isoform ‘a’ then ‘c’ form
- Stable? ([5]; I3A in Miglyol 810, room temperature, 14 days): √
- Comments [5, 14]: Precipitation of I3A
- Stable? [5, 14]: √
- Comments ([5]; I3A in Oleic acid, room temperature, 14 days (isoform 'a' present, shoulder on 'b', 'c' forming)): chromatogram. isoform ‘a’
- Stable? ([5]; I3A in Phosphate buffer pH 4.5, room temperature, 14 days): stable and √
- Comments ([5]; I3A in Phosphate buffer pH 5.5, room temperature, 14 days): Isoform ‘a’ forms
- Comments ([5]; I3A in Phosphate buffer pH 6.5, room temperature, 14 days): Isoform ‘a’ then ‘c’ form
- Stable? ([5]; I3A in Polyethylene glycol, room temperature, 14 days): √
- Comments ([5]; I3A in Propylene glycol, room temperature, 14 days (comment continues: isoforms)): Formation of ‘a’ and ‘c’
- Comments ([5]; I3A in Sodium hyaluronate/H2O, room temperature, 2 days study): Isoform ‘a’ present
- Stable? ([5]; I3A in Sodium hyaluronate/PO4 pH 4.5, room temperature, 2 days study): √
- Stable? ([5]; I3A in Tween 80/Span 80/H2O, room temperature, 14 days): √
- Stable? ([5]; I3A in Tween 80/Span 80/PO4 pH 4.5, room temperature, 14 days): √
- Comments ([5]; I3A in Water, room temperature, 14 days): Isoform ‘a’ then ‘c’ form
- Stable? ([5]; I3A in β-cyclodextrin sulphobutyl ether (Captisol)/PO4 pH 4.5, room temperature, 7 days study): √
- stability (Stability of I3A in DMSO; 37° C.): stable
- stability (Stability of I3A in DMSO; room temperature): stable
